Experimental data: the NIST ThermoML archive (doi:10.1021/je800231f)
“And” between values parts separate entries of the source, which are not always exact repeats. Equal entries are not always repeated.

Conditions: Crystal

[F-].[F-].[Hg+2] [mercuric difluoride]
Conditions | vapor or sublimation pressure
457 K | 0.00015 kPa
464 K | 0.00018 kPa
466 K | 0.00024 kPa
469 K | 0.0003 kPa
473 K | 0.00024 kPa
474 K | 0.00042 kPa
475 K | 0.00036 kPa
480 K | 0.00048 kPa
481 K | 0.00066 kPa and 0.00042 kPa
483 K | 0.00051 kPa and 0.00054 kPa
487 K | 0.0006 kPa
488 K | 0.00089 kPa
490 K | 0.00076 kPa and 0.00078 kPa
492 K | 0.00078 kPa
493 K | 0.00091 kPa
494 K | 0.00089 kPa
496 K | 0.00115 kPa and 0.00095 kPa and 0.00107 kPa
498 K | 0.00135 kPa and 0.00107 kPa
499 K | 0.00112 kPa
502 K | 0.00162 kPa and 0.00132 kPa
503 K | 0.00151 kPa
504 K | 0.00178 kPa
505 K | 0.00174 kPa
507 K | 0.00162 kPa and 0.00186 kPa
510 K | 0.00209 kPa
511 K | 0.00245 kPa
512 K | 0.00224 kPa
513 K | 0.00288 kPa and 0.00245 kPa
514 K | 0.00229 kPa
515 K | 0.00257 kPa
516 K | 0.00347 kPa
518 K | 0.00363 kPa
520 K | 0.00324 kPa
521 K | 0.00398 kPa and 0.00339 kPa
523 K | 0.00331 kPa
525 K | 0.00437 kPa and 0.00363 kPa
526 K | 0.00479 kPa
527 K | 0.00437 kPa and 0.00457 kPa
528 K | 0.00457 kPa
529 K | 0.0055 kPa
533 K | 0.00575 kPa
535 K | 0.00759 kPa and 0.00617 kPa
537 K | 0.00759 kPa
539 K | 0.00646 kPa
542 K | 0.00871 kPa
543 K | 0.01047 kPa and 0.00871 kPa
544 K | 0.01072 kPa
549 K | 0.00933 kPa
551 K | 0.01318 kPa and 0.01175 kPa
552 K | 0.01445 kPa
555 K | 0.0138 kPa
557 K | 0.0166 kPa and 0.01318 kPa
560 K | 0.01862 kPa and 0.01698 kPa
561 K | 0.01622 kPa
565 K | 0.02188 kPa
568 K | 0.02455 kPa
570 K | 0.02042 kPa
580 K | 0.02951 kPa
589 K | 0.04074 kPa

[F][Hg].[F][Hg] [mercury fluoride (Hg2F2)]
Conditions | vapor or sublimation pressure
496 K | 2.3e-05 kPa
503 K | 3.4e-05 kPa
508 K | 5.8e-05 kPa
509 K | 4.6e-05 kPa
515 K | 7.9e-05 kPa
516 K | 6.8e-05 kPa
520 K | 0.000102 kPa
524 K | 0.000138 kPa
526 K | 0.000138 kPa
531 K | 0.000204 kPa
533 K | 0.000229 kPa
536 K | 0.000288 kPa and 0.000214 kPa and 0.000229 kPa
539 K | 0.000275 kPa
542 K | 0.000389 kPa
543 K | 0.000324 kPa
544 K | 0.000407 kPa
545 K | 0.000437 kPa
546 K | 0.000501 kPa and 0.000363 kPa
547 K | 0.000437 kPa
548 K | 0.000501 kPa
549 K | 0.000457 kPa
552 K | 0.000589 kPa
553 K | 0.00055 kPa
554 K | 0.000871 kPa and 0.000646 kPa and 0.000575 kPa
556 K | 0.000676 kPa
557 K | 0.000794 kPa and 0.000724 kPa
559 K | 0.000871 kPa and 0.000724 kPa and 0.000851 kPa
560 K | 0.000794 kPa
562 K | 0.001 kPa and 0.000912 kPa
563 K | 0.001 kPa
564 K | 0.001288 kPa and 0.001 kPa
565 K | 0.001148 kPa and 0.001259 kPa
567 K | 0.001259 kPa
569 K | 0.00123 kPa
571 K | 0.001585 kPa
572 K | 0.001585 kPa and 0.001445 kPa
573 K | 0.002138 kPa and 0.001549 kPa and 0.001349 kPa
574 K | 0.001585 kPa
576 K | 0.002042 kPa
577 K | 0.002399 kPa
578 K | 0.00195 kPa and 0.002089 kPa and 0.001905 kPa
579 K | 0.002089 kPa
580 K | 0.002089 kPa
582 K | 0.003162 kPa
583 K | 0.002089 kPa
584 K | 0.003236 kPa and 0.002512 kPa
585 K | 0.002692 kPa and 0.002818 kPa
586 K | 0.002884 kPa
588 K | 0.003236 kPa and 0.003162 kPa
589 K | 0.00309 kPa
590 K | 0.003548 kPa
591 K | 0.004571 kPa
592 K | 0.004467 kPa
593 K | 0.003631 kPa
594 K | 0.004467 kPa
595 K | 0.004365 kPa
596 K | 0.004571 kPa and 0.004365 kPa
599 K | 0.006026 kPa and 0.004786 kPa
600 K | 0.006918 kPa and 0.00537 kPa
601 K | 0.005754 kPa
605 K | 0.007762 kPa and 0.006457 kPa and 0.006761 kPa
606 K | 0.006918 kPa [middle of 4 runs]
609 K | 0.00955 kPa
611 K | 0.008128 kPa and 0.00955 kPa and 0.007413 kPa
614 K | 0.01 kPa and 0.00871 kPa
615 K | 0.01 kPa
616 K | 0.01259 kPa and 0.01072 kPa and 0.01097 kPa
617 K | 0.01148 kPa
618 K | 0.0123 kPa
619 K | 0.01023 kPa
622 K | 0.0138 kPa and 0.0123 kPa
623 K | 0.01514 kPa
624 K | 0.01738 kPa
625 K | 0.01862 kPa
626 K | 0.0138 kPa
628 K | 0.01549 kPa
629 K | 0.0195 kPa
